Laboratory results: US5654179A, “Nucleic acid preparation methods” (HRI Research, Inc., priority 1994, dated 1997)
Structures can show the parent of a compound that is named as a salt. Where two headings read alike, the source gives them in different places.

Legend:
Taq polymerase [1] = settings: cited from earlier work
Taq polymerase [2] = format: biochemical; parameters: key to Effect of cofactors on serum albumin: BSA / Effect of cofactors on transferrin: Bovine Transferrin: The presence of product bands ("+") indicated that the cofactor was, in conjunction with transferrin or serum albumin, able to overcome inhibition
Procedure: Generally, PCR was carried out using 175-200 μM dNTPS (deoxyribonucleoside 5'-triphosphates) and 0.5 to 1.0 μM primers. Five units/100 μl of Taq polymerase were used. PCR reactions were overlaid with 30-100 μl light mineral oil. A typical PCR cycle for HIV amplification using a Perkin-Elmer Cetus DNA Thermal Cycler (Part No. N8010150) was: denaturation at 95° C. for 30 seconds; annealing at 55° C. for 30 seconds; and extension at 72° C. for 1 minute. PCR cycles were normally carried out in this manner for 35 cycles followed by 7 minutes at 72° C.
In some instances below, amplification of human histocompatibility (HLA) Class II genes was performed using primer pair GH26 (SEQ ID NO:2) and GH27 (SEQ ID NO:3) and human placental DNA to produce a 242-mer product (SEQ ID NO: 4). These primers and other primers are described in PCR Protocols: A Guide To Methods and Applications, Innis, M. A. et al. eds., pp. 261-271 (1990)).
Whole blood was prepared according to Mode III (see FIG. 1). Whole blood samples (100 μl) were lysed with protease K (0.5 mg/ml, 55° C. for 1 hour). The enzyme was inactivated by heating (95°-100°C., 10 minutes). Four sets of reactions were then set up involving the addition of interfering reagent to the protease lysate: 1) transferrin with 10 mM sodium bicarbonate; 2) transferrin with 20 mM sodium bicarbonate; 3) serum albumin with 10 mM sodium bicarbonate; and 4) serum albumin with no cofactor. These reaction were performed at room temperature for thirty minutes using a concentration range for transferrin and serum albumin (10, 25, 50, 75, 100, 150, 200 and 250 μg per 20 μl PCR rxn). PCR was then set up using the primer pair GH26/GH27 to produce a 242-mer product (see above). Two standard control reactions were run in separate tubes: i) a no nucleic acid target control; and 2) a positive control (human placental DNA). Four additional control lanes were run: 1) no inhibitor treatment (two lanes); 2) 10 mM sodium bicarbonate only (one lane); and 3) 50 μg transferrin only (one lane); and 4) transferrin with 10 mM sodium bicarbonate (two lanes). PCR was carried out for 35 cycles. The PCR products were thereafter electrophoresed (agarose) and visualized with ethidium bromide staining. The two above-named control reactions were electrophoresed in lanes 9 and 10 of FIG. 16A, respectively, as well as lanes 17 and 18 of FIG. 16B, respectively. In FIG. 16C, the positive control is in lane 1 and the negative control is in lane 2.
Whole blood was prepared according to Mode III (see FIG. 1). Whole blood samples (20 μl) were lysed with protease K (0.5 mg/ml, 55° C. for 1 hour). The enzyme was inactivated by heating (95°-100° C., 10 minutes). Reactions were then set up involving the addition of bovine transferrin or serum albumin with various cofactors, including bicarbonate ion, azide ion, thiocyanate ion, cyanate ion, oxalate ion, malonate ion, glycinate ion, and thioglycolate ion. These reaction were performed at room temperature for thirty minutes. PCR was then set up using the using primer pair GH26/GH27 to produce a 242-mer product (see above). PCR was carried out for 35 cycles. The PCR products were thereafter electrophoresed (agarose) and visualized with ethidium bromide staining.

Row | Molecule | Effect of cofactors on serum albumin: BSA (Taq polymerase [2]) | Effect of cofactors on transferrin: Bovine Transferrin (Taq polymerase [2]) | other results
1 | [Fe+2] [Fe++] | – | – | inhibition of PCR / Taq polymerase (Taq polymerase [1]): inhibit PCR
2 | [Fe+3] [Fe^+++] | – | – | inhibition of PCR / Taq polymerase (Taq polymerase [1]): inhibit PCR
3 | [N-]=[N+]=[N-] [Sodium Azide (NaN3), Sodium Azide] | – | – | Effect of cofactors on serum albumin: BSA (Taq polymerase [2]; cofactor with BSA): +
4 | O=C(O)O [Sodium Bicarbonate (NaHCO3), Sodium Bicarbonate] | + | + | –
5 | N#CO [Sodium Cyanate (NaOCN), Sodium Cyanate] | + | + | –
6 | NCC(=O)O [Sodium Glycinate (NaO2 CH2 NH2), Sodium Glycinate] | + | + | –
7 | O=C(O)CC(=O)O [Sodium Malonate (NaO2 CCH2 CO2 Na), Sodium Malonate] | + | – | –
8 | O=C(O)C(=O)O [Sodium Oxalate (NaO2 CCO2 Na), Sodium Oxalate] | + | – | –
9 | N#CS [Sodium Thiocyanate (NaSCN), Sodium Thiocyanate] | + | + | –
10 | O=C(O)CS [Sodium Thioglycolate (NaO2 CCH2 SH), Sodium Thioglycolate] | + | + | –
11 | O=C(O)O [cofactor, sodium bicarbonate] | – | – | PCR product (Taq polymerase [2]): No product is visible
12 | C=CC1=C(C)c2cc3[n-]c(cc4[n-]c(cc5nc(cc1n2)C(C)=C5C=C)c(C)c4CCC(=O)O)c(CCC(=O)O)c3C.[Fe+2] [heme] | – | – | inhibitory concentration in PCR (Taq polymerase [1]; final concentration): 0.8 µM
13 | serum albumin | – | – | PCR product (Taq polymerase [2]; serum albumin 25 μg with cofactor (lane 9)): weak product band; PCR product (Taq polymerase [2]; serum albumin 10 to 250 μg without cofactor): No product is visible; PCR product (Taq polymerase [2]; serum albumin higher concentrations with cofactor (lanes 10-16)): strong product bands
